{
  "source": "ChEMBL document CHEMBL1777806",
  "about": "“Three new cytotoxic aryltetralin lignans from Sinopodophyllum emodi” (Bioorg Med Chem Lett, 2011)",
  "key": {"KB": {"tested_on": "KB", "assay": "Cytotoxicity against human KB cells after 72 hrs by MTT assay", "type": "functional, cell-based"}, "HeLa": {"tested_on": "HeLa", "assay": "Cytotoxicity against human HeLa cells after 72 hrs by MTT assay", "type": "functional, cell-based"}},
  "data": [
    {"smiles": "COc1cc([C@@H]2c3cc4c(cc3[C@@H](O[C@@H]3O[C@@H]5CO[C@@H](C)O[C@H]5[C@H](O)[C@H]3O)[C@H]3COC(=O)[C@H]23)OCO4)cc(OC)c1O", "note": "[ETOPOSIDE]", "values": [
      {"measurement": "IC50", "setting": "KB", "value": 10, "unit": "µM"},
      {"measurement": "IC50", "setting": "HeLa", "value": 4, "unit": "µM"}
    ]},
    {"smiles": "COc1cc([C@@H]2c3cc(O)c(O)cc3[C@H](O)[C@H]3COC(=O)[C@H]23)cc(OC)c1O", "values": [
      {"measurement": "IC50", "setting": "KB", "value": "> 100", "unit": "µM"},
      {"measurement": "IC50", "setting": "HeLa", "value": 79.6, "unit": "µM"}
    ]},
    {"smiles": "COc1cc([C@@H]2c3cc4c(cc3C(=O)[C@@H]3COC(=O)[C@H]23)OCO4)cc(OC)c1OC", "note": "[ISOPICROPODOPHYLLONE]", "values": [
      {"measurement": "IC50", "setting": "KB", "value": "> 100", "unit": "µM"},
      {"measurement": "IC50", "setting": "HeLa", "value": 32.1, "unit": "µM"}
    ]},
    {"smiles": "COc1cc([C@@H]2c3cc4c(cc3[C@H](O)[C@H]3COC(=O)[C@H]23)OCO4)cc(OC)c1OC(C)=O", "values": [
      {"measurement": "IC50", "setting": "KB", "value": 0.05, "unit": "µM"},
      {"measurement": "IC50", "setting": "HeLa", "value": 0.076, "unit": "µM"}
    ]},
    {"smiles": "COc1cc([C@@H]2c3cc4c(cc3[C@H](O[C@@H]3O[C@H](CO)[C@@H](O)[C@H](O)[C@H]3O)[C@H]3COC(=O)[C@H]23)OCO4)cc(OC)c1OC", "values": [
      {"measurement": "IC50", "setting": "KB", "value": 9.25, "unit": "µM"},
      {"measurement": "IC50", "setting": "HeLa", "value": 6.65, "unit": "µM"}
    ]},
    {"smiles": "COc1cc([C@@H]2c3cc4c(cc3[C@H](O[C@@H]3O[C@H](CO)[C@@H](O)[C@H](O)[C@H]3O)[C@H]3COC(=O)[C@H]23)OCO4)cc(OC)c1O", "values": [
      {"measurement": "IC50", "setting": "KB", "value": 9.51, "unit": "µM"},
      {"measurement": "IC50", "setting": "HeLa", "value": 5.33, "unit": "µM"}
    ]},
    {"smiles": "COc1cc([C@@H]2c3cc4c(cc3C[C@H]3COC(=O)[C@@H]32)OCO4)cc(OC)c1O", "note": "[4'-DEMETHYLDEOXYPODOPHYLLOTOXIN]", "values": [
      {"measurement": "IC50", "setting": "KB", "value": 0.0078, "unit": "µM"},
      {"measurement": "IC50", "setting": "HeLa", "value": 0.074, "unit": "µM"}
    ]},
    {"smiles": "COc1cc([C@@H]2c3cc4c(cc3[C@H](O[C@@H]3O[C@H](COC(C)=O)[C@@H](O)[C@H](O)[C@H]3O)[C@H]3COC(=O)[C@H]23)OCO4)cc(OC)c1OC", "note": "[SINOLIGNAN A]", "values": [
      {"measurement": "IC50", "setting": "KB", "value": 8.76, "unit": "µM"},
      {"measurement": "IC50", "setting": "HeLa", "value": 3.77, "unit": "µM"}
    ]},
    {"smiles": "COc1cc([C@@H]2c3cc4c(cc3[C@H](O[C@@H]3O[C@H](CO[C@@H]5O[C@H](CO)[C@@H](O)[C@H](O)[C@H]5O)[C@@H](O)[C@H](O)[C@H]3O)[C@H]3COC(=O)[C@@H]23)OCO4)cc(OC)c1OC", "values": [
      {"measurement": "IC50", "setting": "KB", "value": "> 100", "unit": "µM"},
      {"measurement": "IC50", "setting": "HeLa", "value": "> 100", "unit": "µM"}
    ]},
    {"smiles": "COc1cc([C@@H]2c3cc4c(cc3[C@@H](O[C@@H]3O[C@H](CO)[C@@H](O)[C@H](O)[C@H]3O)[C@H]3COC(=O)[C@H]23)OCO4)cc(OC)c1O", "values": [
      {"measurement": "IC50", "setting": "KB", "value": "< 0.01", "unit": "µM"},
      {"measurement": "IC50", "setting": "HeLa", "value": 0.048, "unit": "µM"}
    ]},
    {"smiles": "COc1cc(-c2c3c(c(O)c4cc5c(cc24)OCO5)COC3=O)cc(OC)c1OC", "note": "[DEHYDROPODOPHYLLOTOXIN]", "values": [
      {"measurement": "IC50", "setting": "KB", "value": 9.79, "unit": "µM"},
      {"measurement": "IC50", "setting": "HeLa", "value": 8.28, "unit": "µM"}
    ]},
    {"smiles": "COc1cc([C@@H]2c3cc4c(cc3[C@H](O[C@@H]3O[C@H](CO[C@@H]5O[C@H](CO)[C@@H](O)[C@H](O)[C@H]5O)[C@@H](O)[C@H](O)[C@H]3O)[C@H]3COC(=O)[C@@H]23)OCO4)cc(OC)c1O", "note": "[SINOLIGNAN B]", "values": [
      {"measurement": "IC50", "setting": "KB", "value": "> 100", "unit": "µM"},
      {"measurement": "IC50", "setting": "HeLa", "value": "> 100", "unit": "µM"}
    ]},
    {"smiles": "COc1cc([C@@H]2c3cc(O)c(O)cc3[C@H](O)[C@H]3COC(=O)[C@H]23)cc(OC)c1OC", "note": "[6,7-O,O-DEMETHYLENEPODOPHYLLOTOXIN]", "values": [
      {"measurement": "IC50", "setting": "KB", "value": "> 100", "unit": "µM"},
      {"measurement": "IC50", "setting": "HeLa", "value": "> 100", "unit": "µM"}
    ]},
    {"smiles": "COc1cc(-c2c3c(c(O)c4cc5c(cc24)OCO5)COC3=O)cc(OC)c1O", "values": [
      {"measurement": "IC50", "setting": "KB", "value": 84.7, "unit": "µM"},
      {"measurement": "IC50", "setting": "HeLa", "value": "> 100", "unit": "µM"}
    ]},
    {"smiles": "COc1cc([C@@H]2c3cc4c(cc3[C@H](O)[C@H]3COC(=O)[C@H]23)OCO4)cc(OC)c1OC", "note": "[PODOFILOX]", "values": [
      {"measurement": "IC50", "setting": "KB", "value": 0.056, "unit": "µM"},
      {"measurement": "IC50", "setting": "HeLa", "value": 0.069, "unit": "µM"}
    ]},
    {"smiles": "COc1cc([C@@H]2c3cc4c(cc3[C@H](O)[C@H]3COC(=O)[C@H]23)OCO4)cc(OC)c1O", "values": [
      {"measurement": "IC50", "setting": "KB", "value": 0.064, "unit": "µM"},
      {"measurement": "IC50", "setting": "HeLa", "value": 0.08, "unit": "µM"}
    ]},
    {"smiles": "COc1cc([C@@H]2c3cc4c(cc3C[C@H]3COC(=O)[C@@H]32)OCO4)cc(OC)c1O[C@@H]1O[C@H](CO)[C@@H](O)[C@H](O)[C@H]1O", "values": [
      {"measurement": "IC50", "setting": "KB", "value": 2.09, "unit": "µM"},
      {"measurement": "IC50", "setting": "HeLa", "value": 0.87, "unit": "µM"}
    ]},
    {"smiles": "COc1cc([C@@H]2c3cc4c(cc3C[C@H]3COC(=O)[C@@H]32)OCO4)cc(OC)c1OC", "note": "[DESOXYPODOPHYLLOTOXIN]", "values": [
      {"measurement": "IC50", "setting": "KB", "value": 0.0089, "unit": "µM"},
      {"measurement": "IC50", "setting": "HeLa", "value": 0.0069, "unit": "µM"}
    ]}
  ]
}
